{"source": "patent EP2229962A1", "about": "“Medical-surgical devices with antibacterial coating for human or animal implant and a method for their production” (Martelli, Laura, priority 2009, dated 2010)", "origin": "cited, not measured here", "note": "Read-outs that look alike come from different tables or passages of the source."}
{"compound": "[Ag+]", "note": "[Ag^+ ions, Ag^+]", "values": [{"measurement": "concentration of Ag^+ ions needed to perform an antibacterial action", "setting": "bacteria; 1 ppb equivalent to 1 µg/l", "result": "at least 1 ppb"}, {"measurement": "concentration of Ag^+ ions needed to perform an antibacterial action", "setting": "bacteria; in the case of certain bacteria", "result": "≥ 0.1", "unit": "ppb"}, {"measurement": "concentration above which there are cytotoxic effects to the surrounding tissue", "setting": "surrounding tissue", "result": "> 35", "unit": "ppb"}]}
